Laboratory results from patent US9976141B2, “Compositions and methods for inhibiting gene expression of Hif2alpha” (Arrowhead Madison Inc., priority 2015, dated 2018).
“And” between values parts separate entries of the source, which are not always exact repeats. Identical values can stand only once.

Tested on: human (tumor) Hif2α (EPAS1) mRNA
Assay: Hif2α knockdown in orthotopic RCC tumor bearing mice, single injection of RNAi trigger-delivery polymer conjugate, RT-qPCR (Table 7)
Type: in vivo
Conditions: single tail vein injection, relative to isotonic glucose
Outline: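 A single intravenous dose of Hif2α RNAi trigger–delivery polymer conjugate, or isotonic glucose vehicle, was given to nude mice with subcapsular A498-SEAP renal tumours (about 5–6 weeks old). At the indicated time, tumour RNA was assayed by biplex TaqMan qPCR against CycA, and relative expression was calculated by ΔΔCT versus vehicle.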

[1] = RNAi trigger 100 μg, polymer 064 250 μg
[2] = RNAi trigger 50 μg, polymer 064 125 μg
[3] = RNAi trigger 75 μg, polymer 064 187.5 μg

Substance	Relative Expression day 4 (Hif2α mRNA in kidney tumor) [1]	Relative Expression day 4 (Hif2α mRNA in kidney tumor) [2]	Relative Expression day 4 (Hif2α mRNA in kidney tumor) [3]
AD01891 (antisense UGUAAAACAAUUGUGUACUTT; sense AGUACACAAUUGUUUUACAT; Hif2alpha RNAi agent antisense strand; modified_base 2,4,6,8,10,13,14,16,18 /mod_base = “2′-deoxy-2′-fluoro corresponding nucleoside”; modified_base 1,3,5,7,9,11,12,15,17,19 /mod_base = “2′-O-methyl corresponding nucleoside”; modified_base 2,3,21 /mod_base = “5′-phosphorothioate corresponding nucleotide”; Hif2alpha RNAi agent sense strand; modified_base 3,5,8,9,11,13,17 /mod_base = “2′-deoxy-2′-fluoro corresponding nucleoside”; modified_base 1,2,4,6,7,10,12,14,15,16,18,19 /mod_base = “2′-O-methyl corresponding nucleoside”; modified_base 20 /mod_base = “3′-3′-linked nucleotide”; modified_base)	0.189	–	–
AD01892 (antisense UGUAAAACAAUUGUGUACUTT; sense AGUACACAAUUGUUUUACAT; Hif2alpha RNAi agent antisense strand; modified_base 2,4,6,8,10,12,14,15,18 /mod_base = “2′-deoxy-2′-fluoro corresponding nucleoside”; modified_base 1,3,5,7,9,11,13,16,17,19 /mod_base = “2′-O-methyl corresponding nucleoside”; modified_base 2,3,21 /mod_base = “5′-phosphorothioate corresponding nucleotide”; Hif2alpha RNAi agent sense strand; modified_base 1,3,4,7,9,11,13,15,17,19 /mod_base = “2′-deoxy-2′-fluoro corresponding nucleoside”; modified_base 2,5,6,8,10,12,14,16,18 /mod_base = “2′-O-methyl corresponding nucleoside”; modified_base 20 /mod_base = “3′-3′-linked nucleotide”; modified_base)	0.146	–	–
AD01893 (antisense UGUAAAACAAUUGUGUACUTT; sense AGUACACAAUUGUUUUACAT; Hif2alpha RNAi agent antisense strand; modified_base 2,4,6,8,10,12,14,15,18 /mod_base = “2′-deoxy-2′-fluoro corresponding nucleoside”; modified_base 1,3,5,7,9,11,13,16,17,19 /mod_base = “2′-O-methyl corresponding nucleoside”; modified_base 2,3,21 /mod_base = “5′-phosphorothioate corresponding nucleotide”; Hif2alpha RNAi agent sense strand; modified_base 3,4,7,9,11,13,17 /mod_base = “2′-deoxy-2′-fluoro corresponding nucleoside”; modified_base 1,2,5,6,8,10,12,14,15,16,18,19 /mod_base = “2′-O-methyl corresponding nucleoside”; modified_base 20 /mod_base = “3′-3′-linked nucleotide”; modified_base)	0.115	–	–
AD02074 (antisense TUUCAUGAAAUCGUUACGUTT; sense ACGUAACGAUUUCAUGAAAT; Hif2alpha RNAi agent antisense strand; modified_base 2,4,6,8,10,14,16,18 /mod_base = “2′-deoxy-2′-fluoro corresponding nucleoside”; modified_base 3,5,7,9,11,12,13,15,17,19 /mod_base = “2′-O-methyl corresponding nucleoside”; modified_base 2,3,21 /mod_base = “5′-phosphorothioate corresponding nucleotide”; Hif2alpha RNAi agent sense strand; modified_base 1,3,5,7,8,9,11,13,15,17,19 /mod_base = “2′-deoxy-2′-fluoro corresponding nucleoside”; modified_base 2,4,6,10,12,14,16,18 /mod_base = “2′-O-methyl corresponding nucleoside”; modified_base 20 /mod_base = “3′-3′-linked nucleotide”; modified_base 1)	–	0.566	–
AD02691 (antisense UUUCAUGAAAUCGUUACGUUG; sense ACGUAACGAUUUCAUGAAAT; Hif2alpha RNAi agent antisense strand; modified_base 2,4,6,8,10,14,16,18 /mod_base = “2′-deoxy-2′-fluoro corresponding nucleoside”; modified_base 1,3,5,7,9,11,12,13,15,17,19,20,21 /mod_base = “2′-O-methyl corresponding nucleoside”; modified_base 2,3,20,21 /mod_base = “5′-phosphorothioate corresponding nucleotide”; Hif2alpha RNAi agent sense strand; modified_base 1,3,5,7,8,9,11,13,15,17 /mod_base = “2′-deoxy-2′-fluoro corresponding nucleoside”; modified_base 2,4,6,10,12,14,16,18,19 /mod_base = “2′-O-methyl corresponding nucleoside”; modified_base 20 /mod_base = “3′-3′-linked nucleotide”; modi)	–	–	0.124
AD02692 (antisense UUUCAUGAAAUCGUUACGUUG; sense ACGUAACGAUUUCAUGAAAT; Hif2alpha RNAi agent antisense strand; modified_base 2,4,6,8,10,14,16,18 /mod_base = “2′-deoxy-2′-fluoro corresponding nucleoside”; modified_base 1,3,5,7,9,11,12,13,15,17,19,20,21 /mod_base = “2′-O-methyl corresponding nucleoside”; modified_base 2,3,20,21 /mod_base = “5′-phosphorothioate corresponding nucleotide”; Hif2alpha RNAi agent sense strand; modified_base 3,5,7,8,9,13,15,17 /mod_base = “2′-deoxy-2′-fluoro corresponding nucleoside”; modified_base 1,2,4,6,10,11,12,14,16,18,19 /mod_base = “2′-O-methyl corresponding nucleoside”; modified_base 20 /mod_base = “3′-3′-linked nucleotide”; modi)	–	0.092	0.089 and 0.121
AD02693 (antisense UUUCAUGAAAUCGUUACGUUG; sense ACGUAACGAUUUCAUGAAAT; Hif2alpha RNAi agent antisense strand; modified_base 2,4,6,8,10,14,16,18 /mod_base = “2′-deoxy-2′-fluoro corresponding nucleoside”; modified_base 1,3,5,7,9,11,12,13,15,17,19,20,21 /mod_base = “2′-O-methyl corresponding nucleoside”; modified_base 2,3,20,21 /mod_base = “5′-phosphorothioate corresponding nucleotide”; Hif2alpha RNAi agent sense strand; modified_base 5,7,9,13,15,17 /mod_base = “2′-deoxy-2′-fluoro corresponding nucleoside”; modified_base 1,2,3,4,6,8,10,11,12,14,16,18,19 /mod_base = “2′-O-methyl corresponding nucleoside”; modified_base 20 /mod_base = “3′-3′-linked nucleotide”; modi)	–	–	0.122
AD02694 (antisense UUUCAUGAAAUCGUUACGUUG; sense ACGUAACGAUUUCAUGAAAT; Hif2alpha RNAi agent antisense strand; modified_base 2,4,6,8,10,14,16,18 /mod_base = “2′-deoxy-2′-fluoro corresponding nucleoside”; modified_base 1,3,5,7,9,11,12,13,15,17,19,20,21 /mod_base = “2′-O-methyl corresponding nucleoside”; modified_base 2,3,20,21 /mod_base = “5′-phosphorothioate corresponding nucleotide”; Hif2alpha RNAi agent sense strand; modified_base 3,7,9,13,17 /mod_base = “2′-deoxy-2′-fluoro corresponding nucleoside”; modified_base 1,2,4,5,6,8,10,11,12,14,15,16,18,19 /mod_base = “2′-O-methyl corresponding nucleoside”; modified_base 20 /mod_base = “3′-3′-linked nucleotide”; modi)	–	–	0.099
AD02695 (antisense UUUCAUGAAAUCGUUACGUUG; sense ACGUAACGAUUUCAUGAAAT; Hif2alpha RNAi agent antisense strand; modified_base 2,4,6,8,10,14,16,18 /mod_base = “2′-deoxy-2′-fluoro corresponding nucleoside”; modified_base 1,3,5,7,9,11,12,13,15,17,19,20,21 /mod_base = “2′-O-methyl corresponding nucleoside”; modified_base 2,3,20,21 /mod_base = “5′-phosphorothioate corresponding nucleotide”; Hif2alpha RNAi agent sense strand; modified_base 7,9,13 /mod_base = “2′-deoxy-2′-fluoro corresponding nucleoside”; modified_base 1,2,3,4,5,6,8,10,11,12,14,15,16,17,18,19 /mod_base = “2′-O-methyl corresponding nucleoside”; modified_base 20 /mod_base = “3′-3′-linked nucleotide”; modi)	–	0.123	0.101 and 0.155
